Measured values published in patent publication US6114334A, “Piperazine derivatives as therapeutic agents” (Knoll Aktiengesellschaft, priority 1995, dated 2000).
Where a name gives a salt, the structure may show the parent alone. Read-outs that look alike come from different tables or passages of the source.

Tests used:
α2D-adrenoceptors = biological target: T1, α2D-adrenoceptors (Rattus norvegicus, UniProt P22909); assay: inhibition of tritiated idazoxan binding to α2D-adrenoceptors in vitro; parameters: species or system rat (male Charles River CD, frontal cortical tissue); settings: rat frontal cortex; for inhibition at 1 µM: 10^-6 M, [3H]idazoxan, read-out: % displacement at 10^-6 M, α2D; for Ki: [3H]idazoxan 1 nM, 0° C., 75 min
T1 sequence (P22909 1-465): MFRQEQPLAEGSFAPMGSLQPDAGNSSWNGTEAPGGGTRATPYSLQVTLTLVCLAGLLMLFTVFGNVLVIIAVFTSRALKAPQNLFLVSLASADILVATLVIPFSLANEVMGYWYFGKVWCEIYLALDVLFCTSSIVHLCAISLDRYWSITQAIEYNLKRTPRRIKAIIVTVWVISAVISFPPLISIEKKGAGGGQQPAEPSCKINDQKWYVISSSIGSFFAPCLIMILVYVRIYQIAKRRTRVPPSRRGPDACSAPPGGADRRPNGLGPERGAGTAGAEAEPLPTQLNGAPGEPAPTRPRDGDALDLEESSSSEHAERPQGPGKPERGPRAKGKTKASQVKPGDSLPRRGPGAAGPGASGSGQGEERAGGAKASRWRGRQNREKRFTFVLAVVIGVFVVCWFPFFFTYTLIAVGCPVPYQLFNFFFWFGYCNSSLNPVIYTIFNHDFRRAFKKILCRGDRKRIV

D2 dopamine receptors = D2 dopamine receptors (Rattus norvegicus, UniProt P61169); assay: inhibition of tritiated (S)-sulpiride binding to D2 dopamine receptors in vitro; parameters: species or system rat (male Charles River CD, striatal tissue); settings: rat striatum; for Ki: tritiated (S)-sulpiride 1 nM, 4° C., 40 min
D2 dopamine receptors, sequence (P61169 whole entry): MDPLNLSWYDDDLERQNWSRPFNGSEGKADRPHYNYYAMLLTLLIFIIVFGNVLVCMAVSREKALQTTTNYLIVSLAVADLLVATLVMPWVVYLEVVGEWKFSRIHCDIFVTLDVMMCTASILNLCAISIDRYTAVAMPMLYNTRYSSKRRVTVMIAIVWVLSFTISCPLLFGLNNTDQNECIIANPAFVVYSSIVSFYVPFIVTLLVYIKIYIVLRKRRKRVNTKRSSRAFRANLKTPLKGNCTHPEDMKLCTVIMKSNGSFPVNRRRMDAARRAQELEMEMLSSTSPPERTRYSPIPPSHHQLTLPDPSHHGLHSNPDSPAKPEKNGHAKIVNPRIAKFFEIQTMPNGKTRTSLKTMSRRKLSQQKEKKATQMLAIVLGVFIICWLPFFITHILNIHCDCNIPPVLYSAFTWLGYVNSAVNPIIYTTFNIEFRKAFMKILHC

α1-adrenoceptors = assay: inhibition of 7-methoxy-[3H]prazosin binding to α1-adrenoceptors in vitro; parameters: species or system rat (male Charles River CD, whole cortical tissue); settings: rat whole cortex, 30 min; for Ki: 7-methoxy-[3H]prazosin 0.1 nM, 30° C.; for % displacement at 10^-6 M, α1: 7-methoxy-[3H]prazosin, 1 µM
Experimental: Whole cortical tissue from the brains of male Charles River CD rats weighing between 150-250 g were homogenised in ice-cold 50 mM Tris-HCl, pH 7.6 (at 25° C.; 1:40 w/v) and centrifuged at 1000 g at 4° C. for 10 minutes. The supernatant was centrifuged at 30,000 g at 4° C. for 10 minutes. The pellet was rehomogenised in 50 mM Tris-HCl, pH 7.6 (1:40 w/v) and centrifuged at 30,000 g at 4° C. for 10 minutes. The final pellet was resuspended in 50 mM Tris-HCl, pH 7.6 (equivalent to 12.5 mg wet weight of tissue/ml) and used immediately in the binding assay. Aliquots (400 μl; equivalent to 5 mg wet weight of tissue/tube) of this suspension were added to tubes containing the ligand (50 μl; 0.1 nM) and distilled water (50 μl; total binding) or phentolamine (50 μl; 5 μM; non-specific binding) or test compound (50 μl; at a single concentration of 10^-6 M or at 10 concentrations ranging from 10^-11 -10^-3 M). The ligand was 7-methoxy-[^3 H]prazosin and the mixture was incubated at 30° C. for 30 minutes before the incubation was terminated by rapid filtration. The filters were washed with ice-cold Tris-HCl buffer and dried. The filters were punched out into vials, scintillation fluid added and radioactivity determined by liquid scintillation counting. The percentage displacement of specific binding of the tritiated ligand was calculated for the single concentration (10^-6 M) of test compound. […] The concentration which gave 50% inhibition of specific binding (IC50) was obtained from the curve. The inhibition coefficient Ki was then calculated using the formula [formula] in which [ligand] is the concentration of the tritiated ligand used and KD is the equilibrium dissociation constant for the ligand.

5-HT1A receptors = biological target: T2, 5-HT1A receptors (Rattus norvegicus, UniProt P19327); assay: inhibition of [3H]8-OH-DPAT binding to 5-HT1A receptors in vitro; parameters: species or system rat (male Sprague-Dawley, hippocampal tissue); settings: for inhibition at 1 µM: read-out: % displacement at 10^-6 M, 5-HT1A; for Ki: [3H]8-OH-DPAT 2 nM, 25° C., 30 min
T2 sequence (P19327 1-422): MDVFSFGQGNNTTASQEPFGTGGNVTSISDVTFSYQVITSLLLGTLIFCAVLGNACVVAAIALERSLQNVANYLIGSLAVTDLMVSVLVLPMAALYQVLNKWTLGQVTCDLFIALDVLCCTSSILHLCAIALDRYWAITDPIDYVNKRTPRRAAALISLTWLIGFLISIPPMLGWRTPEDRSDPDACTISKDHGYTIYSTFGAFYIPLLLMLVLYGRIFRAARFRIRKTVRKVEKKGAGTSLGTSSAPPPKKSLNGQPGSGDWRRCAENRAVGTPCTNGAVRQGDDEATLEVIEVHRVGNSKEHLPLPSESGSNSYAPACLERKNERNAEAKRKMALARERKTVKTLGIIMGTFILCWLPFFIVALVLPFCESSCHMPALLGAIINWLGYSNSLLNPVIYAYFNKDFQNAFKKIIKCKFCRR
Experimental: Hippocampal tissue from the brains of male Sprague-Dawley rats (Charles River; weight range 150-250 g) was homogenised in ice-cold 50 mM Tris-HCl buffer (pH 7.7 when measured at 25° C., 1:40 w/v) and centrifuged at 30,000 g at 4° C. for 10 minutes. The pellet was rehomogenised in the same buffer, incubated at 37° C. for 10 minutes and centrifuged at 30,000 g at 4° C. for 10 minutes. The final pellet was resuspended in 50 mM Tris-HCl buffer (pH 7.7) containing 4 mM CaCl2. 0.1% L-ascorbic acid and 10 μM pargyline hydrochloride (equivalent to 6.25 mg wet weight of tissue/ml) and used immediately in the binding assay. Aliquots (400 μl; equivalent to 2.5 mg wet weight of tissue/tube) of this suspension were added to tubes containing the ligand (50 μl; 2 nM) and distilled water (50 μl; total binding) or 5-HT (50 μl; 10 μM; non-specific binding) or test compound (50 μl; at a single concentration of 10^-6 M or at 10 concentrations ranging from 10^-11 -10^-3 M). The ligand was [^3 H]8-hydroxy-2-(dipropylamino)tetralin ([^3 H]8-OH-DPAT) and the mixture was incubated at 25° C. for 30 minutes before the incubation was terminated by rapid filtration.
The filters were washed with ice-cold Tris-HCl buffer and dried. The filters were punched out into vials, scintillation fluid added and radioactivity determined by liquid scintillation counting. The percentage displacement of specific binding of the tritiated ligand was calculated for the single concentration (10^-6 M) of test compound. Displacement curves were then produced for those compounds which displaced ≥50% of specific binding of the tritiated ligand at 10^-6 M using a range of concentrations of the compound. The concentration which gave 50% inhibition of specific binding (IC50) was obtained from the curve. The inhibition coefficient Ki was then calculated using the formula [formula] in which [ligand] is the concentration of the tritiated ligand used and KD is the equilibrium dissociation constant for the ligand.

[1] = 10^-6 M, rat hippocampus, [3H]8-OH-DPAT

inhibition at 1 µM (α2D-adrenoceptors) [%]	Ki (D2 dopamine receptors) [nM]	Ki (α1-adrenoceptors) [nM]	inhibition at 1 µM (5-HT1A receptors; [1]) [%]	Ki (α2D-adrenoceptors) [nM]	Ki (5-HT1A receptors; rat hippocampus) [nM]	% displacement at 10^-6 M, α1 (α1-adrenoceptors) [%]	inhibition at 1 µM (D2 dopamine receptors; 10^-6 M, tritiated (S)-sulpiride, read-out: % displacement at 10^-6 M, D2) [%]	Structure (SMILES)	inhibition at 1 µM (5-HT1A receptors) [%]
52	> 500	> 500	52					C=CCn1c(-c2cccnc2)nn(CN2CCN(c3cccc(C)c3C)CC2)c1=S [Example 61, 4-Allyl-2-[4-(2,3-dimethylphenyl)piperazin-1-ylmethyl]-5-(3-pyridyl)-1,2,4-triazole-3(2H,4H)-thione]	
	374	9		81	49			COc1ccccc1N1CCN(Cc2c(C3CC3)nn(-c3ccccc3)c2N)CC1 [Example 9, 5-amino-3-cyclopropyl-4-[4-(2-methoxyphenyl)piperazin-1-ylmethyl]-1-phenylpyrazole]	
	173	301		104	126			C=CCn1c(-c2ccccn2)nn(CN2CCN(c3ccccc3OC)CC2)c1=S [Example 58, 4-Allyl-2-[4-(2-methoxyphenyl)piperazin-1-ylmethyl]-5-(2-pyridyl)-1,2,4-triazole-3(2H,4H)-thione]	
84	93		90			98		C=CCn1c(-c2cccnc2)nn(CCCCN2CCN(c3cccc(C)c3C)CC2)c1=O [Example 64, 4-Allyl-2-{4-[4-(2,3-dimethylphenyl)piperazin-1-yl]butyl}-5-(3-pyridyl)-1,2,4-triazol-3(2H,4H)-one 1.5 maleate]	
	48	16		> 500	64			C=CCn1c(-c2cccnc2)nn(CCCCN2CCN(c3ccccc3OC)CC2)c1=O [Example 46, 4-allyl-2-{4-[4-(2-methoxyphenyl)piperazin-1-yl]butyl}-5-(3-pyridyl)-1,2,4-triazol-3(2H,4H)-one]	
	322	> 500		225	31			C=CCn1c(-c2cccnc2)nn(CN2CCN(c3cccc4c3OCCO4)CC2)c1=S [Example 45, 4-allyl-2-[4-(1,4-benzodioxan-5-yl)piperazin-1-ylmethyl]-5-(3-pyridyl)-1,2,4-triazole-3(2H,4H)-thione]	
	73	358		194	108			COc1ccccc1N1CCN(Cn2ncn(C)c2=S)CC1 [Example 55, 2-[4-(2-Methoxyphenyl)piperazin-1-ylmethyl]-4-methyl-1,2,4-triazole-3(2H,4H)-thione]	
	200	430		71	108			COc1ccccc1N1CCN(Cn2nc(-c3ccc(Cl)cc3)n(-c3cccnc3)c2=S)CC1 [Example 48, 5-(4-Chlorophenyl)-2-[4-(2-methoxyphenyl)piperazin-1-ylmethyl]-4-(3-pyridyl)-1,2,4-triazole-3(2H,4H)-thione]	
	> 500		56	> 500		67		C=CCn1c(-c2ccccc2)nn(CCN2CCN(c3ccccc3OC)CC2)c1=O.O=C(O)/C=C/C(=O)O [Example 68, 4-Allyl-2-{2-[4-(2-methoxyphenyl)piperazin-1-yl]ethyl}-5-phenyl-1,2,4-triazol-3(2H,4H)-one monofumarate]	
	155	159		82	138			C=CCn1c(-c2cccs2)nn(CN2CCN(c3ccccc3OC)CC2)c1=S [Example 60, 4-Allyl-2-[4-(2-methoxyphenyl)piperazin-1-ylmethyl]-5-(2-thienyl)-1,2,4-triazole-3(2H,4H)-thione]	
		> 500		115	101		72	C=CCN1C(=O)C(C)(CN2CCN(c3ccccc3OC)CC2)N=C1c1cccnc1 (stereo not drawn) [Example 39, 1-allyl-4-[4-(2-methoxyphenyl)piperazin-1-ylmethyl]-4-methyl-2-(3-pyridyl)-2-imidazolin-5-one]	

Structure (SMILES)	inhibition at 1 µM (α2D-adrenoceptors) [%]	Ki (D2 dopamine receptors) [nM]	Ki (α1-adrenoceptors) [nM]	inhibition at 1 µM (5-HT1A receptors; [1]) [%]	Ki (α2D-adrenoceptors) [nM]	Ki (5-HT1A receptors; rat hippocampus) [nM]	% displacement at 10^-6 M, α1 (α1-adrenoceptors) [%]	inhibition at 1 µM (D2 dopamine receptors; 10^-6 M, tritiated (S)-sulpiride, read-out: % displacement at 10^-6 M, D2) [%]	inhibition at 1 µM (5-HT1A receptors) [%]
C=CCn1c(-c2ccccc2)nn(CCCCN2CCN(c3ccccc3OC)CC2)c1=O.Cl.Cl [Example 66, 4-Allyl-2-{4-[4-(2-methoxyphenyl)piperazin-1-yl]butyl}-5-phenyl-1,2,4-triazol-3(2H,4H)-one dihydrochloride]		169			> 500		99		92
